Reference: patent publication US12390437B2, “Itaconic acid derivatives and uses thereof intreating an inflammatory disease or a disease associated with an undesirable immune response” (Sitryx Therapeutics Limited, priority 2019, dated 2025)

Test system: IL-1β cytokine output from THP-1s
Test: THP-1 AlphaLISA IL-1β cytokine assay
Assay type: cell-based, human
Settings: Homo sapiens, THP-1, PMA-differentiated THP-1 cells, LPS 24 hr then Nigericin 1 hour; read-out: IL-1β (IC50)
Outline: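 Cells are differentiated with PMA over 72 h, switched to 1% FBS medium and treated with compound for 30 min before LPS stimulation for 24 h. Nigericin is added for a final hour, and secreted cytokine is measured by AlphaLISA, with IC50 fitted from percent inhibition.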

For C=C(CC(=O)O[C@@H](C)CCCCCC)C(=O)OC1CS(=O)(=O)C1 [Example 67, (S)-1-(1,1-dioxidothietan-3-yl) 4-(octan-2-yl) 2-methylenesuccinate], which IC50 is on record?
Its IC50 is 5.7 µM.

C=C(CC(=O)OCCCCCCCC)C(=O)OC1CS(=O)(=O)C1 [Example 47, 1-(1,1-dioxidothietan-3-yl) 4-octyl 2-methylenesuccinate] was tested. Which IC50 did it give?
The IC50 was 3.3 µM.

For C=C(CC(=O)OC(C)C)C(=O)OCCS(C)(=O)=O [Example 22, 4-isopropyl 1-(2-(methylsulfonyl)ethyl) 2-methylenesuccinate], which IC50 is on record?
Its IC50 is 15.4 µM.

Which IC50 does the source give for C=C(CC(=O)OCCCCCCCC)C(=O)OCC(C)(C)OC [Example 34, 1-(2-methoxy-2-methylpropyl) 4-octyl 2-methylenesuccinate] here?
Its IC50 is 31.8 µM.

C=C(CC(=O)OCCCCCCCC)C(=O)OCC(C)(C)C#N [Example 30, 1-(2-cyano-2-methylpropyl) 4-octyl 2-methylenesuccinate] was tested. Which IC50 did it give?
The IC50 was 11.3 µM.

C=C(CC(=O)OCCCCCCCC)C(=O)OC(C)C(=O)O (stereo not drawn) [Example 79, 2-((2-methylene-4-(octyloxy)-4-oxobutanoyl)oxy)propanoic acid] was tested. Which IC50 did it give?
Its IC50 is 11.9 µM.

C=C(CC(=O)OCCCCCC)C(=O)OCC(=O)NS(C)(=O)=O [Example 119, 4-hexyl 1-(2-(methylsulfonamido)-2-oxoethyl) 2-methylenesuccinate] was tested. Which IC50 did it give?
The IC50 was 82.4 µM.

With C=C(CC(=O)OC1CCCCC1)C(=O)OCCN1CCCC1=O [Example 65, 4-cyclohexyl 1-(2-(2-oxopyrrolidin-1-yl)ethyl) 2-methylenesuccinate] as the compound, how does the IC50 read?
The IC50 was 22.6 µM.

With C=C(CC(=O)OC1CCCCCCC1)C(=O)OC(C)CS(C)(=O)=O (stereo not drawn) [Example 62, 4-cyclooctyl 1-(1-(methylsulfonyl)propan-2-yl) 2-methylenesuccinate] as the compound, how does the IC50 read?
The IC50 was 3.5 µM.

Which IC50 does the source give for C=C(CC(=O)OCCCCCCCC)C(=O)OCCC(=O)N(CC)CC [Example 109, 1-(3-(diethylamino)-3-oxopropyl) 4-octyl 2-methylenesuccinate] here?
Its IC50 is 10.6 µM.

How did the IC50 turn out when C=C(CC(=O)OC1CC2CCC1C2)C(=O)OCC(=O)O (stereo not drawn) [Example 115, 2-((4-(bicyclo[2.2.1]heptan-2-yloxy)-2-methylene-4-oxobutanoyl)oxy)acetic acid] was run?
The IC50 was 59.5 µM.

C=C(CC(=O)OCC(C)(C)C)C(=O)OCCC(=O)O [Example 83, 3-((2-methylene-4-(neopentyloxy)-4-oxobutanoyl)oxy)propanoic acid] was tested. Which IC50 did it give?
The IC50 was 34.2 µM.

Which IC50 does the source give for C=C(CC(=O)O[C@H](C)CCCCCC)C(=O)OCCS(C)(=O)=O [Example 55, (R)-1-(2-(methylsulfonyl)ethyl) 4-(octan-2-yl) 2-methylenesuccinate] here?
Its IC50 is 5.1 µM.

For C=C(CC(=O)OCCCCCCCC)C(=O)OCCN1CCS(=O)(=O)CC1 [Example 52, 1-(2-(1,1-dioxidothiomorpholino)ethyl) 4-octyl 2-methylenesuccinate], which IC50 is on record?
Its IC50 is 8.5 µM.

For C=C(CC(=O)OCCCCCCCC)C(=O)OCCOC [Example 29, 1-(2-methoxyethyl) 4-octyl 2-methylenesuccinate], which IC50 is on record?
Its IC50 is 18.4 µM.

For C=C(CC(=O)OC1CCC1)C(=O)OCC(=O)O [Example 116, 2-((4-cyclobutoxy-2-methylene-4-oxobutanoyl)oxy)acetic acid], which IC50 is on record?
The IC50 was 100 µM.

For C=C(CC(=O)OCCCCCCCC)C(=O)OCC1(C#N)CC1 [Example 32, 1-((1-cyanocyclopropyl)methyl) 4-octyl 2-methylenesuccinate], which IC50 is on record?
The IC50 was 18.9 µM.

With C=C(CC(=O)OCCCCCCCC)C(=O)OC(C)COC (stereo not drawn) [Example 31, 1-(1-methoxypropan-2-yl) 4-octyl 2-methylenesuccinate] as the compound, how does the IC50 read?
The IC50 was 12.9 µM.

Test system: IL-6 cytokine output from THP-1s
Test: THP-1 AlphaLISA IL-6 cytokine assay
Assay type: cell-based, human
Settings: Homo sapiens; PMA-differentiated THP-1 cells, LPS 24 hr then Nigericin 1 hour
Method: Measuring Inhibitory Effects on IL-1β and IL-6 Cytokine Output from THP-1s
The cytokine inhibition profiles of compounds of formula (IW-1) were determined in a differentiated THP-1 cell assay. All assays were performed in RPMI-1640 growth medium (Gibco), supplemented with 10% fetal bovine serum (FBS; Gibco), 1% penicillin-streptomycin and 1% sodium pyruvate unless specified otherwise. The IL-1β and IL-6 cytokine inhibition assays were each run in a background of differentiated THP-1 cells as described below. All reagents described were from Sigma-Aldrich unless specified otherwise. Compounds were prepared as 10 mM DMSO stocks.
THP-1 cells were expanded as a suspension up to 80% confluence in appropriate growth medium. Cells were harvested, suspended, and treated with an appropriate concentration of phorbol 12-myristate 13-acetate (PMA) over a 72 hr period (37° C./5% CO2).
Following 72 hrs of THP-1 cell incubation, cellular medium was removed and replaced with fresh growth media containing 1% of FBS. Working concentrations of compounds were prepared separately in 10% FBS treated growth medium and pre-incubated with the cells for 30 minutes (37° C./5% CO2). Following the 30 minute compound pre-incubation, THP-1s were treated with an appropriate concentration of LPS and the THP-1s were subsequently incubated for a 24 hr period (37° C./5% CO2). An appropriate final concentration of Nigericin was then dispensed into the THP-1 plates and incubated for 1 hour (37° C./5% CO2) before THP-1 supernatants were harvested and collected in separate polypropylene 96-well holding plates.
Reagents from each of the IL-1β and IL-6 commercial kits (Perkin Elmer) were prepared and run according to the manufacturer's instructions. Subsequently, fluorescence signal detection in a microplate reader was measured (EnVision® Multilabel Reader, Perkin Elmer).
Percentage inhibition was calculated per cytokine by normalising the sample data to the high and low controls used within each plate (+/−LPS respectively). Percentage inhibition was then plotted against compound concentration and the 50% inhibitory concentration (IC50) was determined from the resultant concentration-response curve.

With C=C(CC(=O)O[C@@H](C)CCCCCC)C(=O)OC1CS(=O)(=O)C1 [Example 67, (S)-1-(1,1-dioxidothietan-3-yl) 4-(octan-2-yl) 2-methylenesuccinate] as the compound, how does the IC50 read?
Its IC50 is 4.8 µM.

How did the IC50 turn out when C=C(CC(=O)OCCCCCCCC)C(=O)OC1CS(=O)(=O)C1 [Example 47, 1-(1,1-dioxidothietan-3-yl) 4-octyl 2-methylenesuccinate] was run?
Its IC50 is 3 µM.

For C=C(CC(=O)OC(C)C)C(=O)OCCS(C)(=O)=O [Example 22, 4-isopropyl 1-(2-(methylsulfonyl)ethyl) 2-methylenesuccinate], which IC50 is on record?
The IC50 was 7 µM.

How did the IC50 turn out when C=C(CC(=O)OCCCCCCCC)C(=O)OCC(C)(C)OC [Example 34, 1-(2-methoxy-2-methylpropyl) 4-octyl 2-methylenesuccinate] was run?
Its IC50 is 16.1 µM.

Which IC50 does the source give for C=C(CC(=O)OCCCCCCCC)C(=O)OCC(C)(C)C#N [Example 30, 1-(2-cyano-2-methylpropyl) 4-octyl 2-methylenesuccinate] here?
The IC50 was 4.8 µM.

Which IC50 does the source give for C=C(CC(=O)OCCCCCCCC)C(=O)OC(C)C(=O)O (stereo not drawn) [Example 79, 2-((2-methylene-4-(octyloxy)-4-oxobutanoyl)oxy)propanoic acid] here?
Its IC50 is 13.5 µM.

For C=C(CC(=O)OCCCCCC)C(=O)OCC(=O)NS(C)(=O)=O [Example 119, 4-hexyl 1-(2-(methylsulfonamido)-2-oxoethyl) 2-methylenesuccinate], which IC50 is on record?
The IC50 was 47.5 µM.

With C=C(CC(=O)OC1CCCCC1)C(=O)OCCN1CCCC1=O [Example 65, 4-cyclohexyl 1-(2-(2-oxopyrrolidin-1-yl)ethyl) 2-methylenesuccinate] as the compound, how does the IC50 read?
The IC50 was 22.4 µM.

C=C(CC(=O)OC1CCCCCCC1)C(=O)OC(C)CS(C)(=O)=O (stereo not drawn) [Example 62, 4-cyclooctyl 1-(1-(methylsulfonyl)propan-2-yl) 2-methylenesuccinate] was tested. Which IC50 did it give?
Its IC50 is 2.8 µM.

Which IC50 does the source give for C=C(CC(=O)OCCCCCCCC)C(=O)OCCC(=O)N(CC)CC [Example 109, 1-(3-(diethylamino)-3-oxopropyl) 4-octyl 2-methylenesuccinate] here?
Its IC50 is 6.8 µM.

C=C(CC(=O)OC1CC2CCC1C2)C(=O)OCC(=O)O (stereo not drawn) [Example 115, 2-((4-(bicyclo[2.2.1]heptan-2-yloxy)-2-methylene-4-oxobutanoyl)oxy)acetic acid] was tested. Which IC50 did it give?
Its IC50 is 36.3 µM.

How did the IC50 turn out when C=C(CC(=O)OCC(C)(C)C)C(=O)OCCC(=O)O [Example 83, 3-((2-methylene-4-(neopentyloxy)-4-oxobutanoyl)oxy)propanoic acid] was run?
The IC50 was 96.9 µM.

How did the IC50 turn out when C=C(CC(=O)O[C@H](C)CCCCCC)C(=O)OCCS(C)(=O)=O [Example 55, (R)-1-(2-(methylsulfonyl)ethyl) 4-(octan-2-yl) 2-methylenesuccinate] was run?
The IC50 was 3.8 µM.

C=C(CC(=O)OCCCCCCCC)C(=O)OCCN1CCS(=O)(=O)CC1 [Example 52, 1-(2-(1,1-dioxidothiomorpholino)ethyl) 4-octyl 2-methylenesuccinate] was tested. Which IC50 did it give?
Its IC50 is 2.5 µM.

C=C(CC(=O)OCCCCCCCC)C(=O)OCCOC [Example 29, 1-(2-methoxyethyl) 4-octyl 2-methylenesuccinate] was tested. Which IC50 did it give?
The IC50 was 7.9 µM.

With C=C(CC(=O)OC1CCC1)C(=O)OCC(=O)O [Example 116, 2-((4-cyclobutoxy-2-methylene-4-oxobutanoyl)oxy)acetic acid] as the compound, how does the IC50 read?
The IC50 was 60.4 µM.

C=C(CC(=O)OCCCCCCCC)C(=O)OCC1(C#N)CC1 [Example 32, 1-((1-cyanocyclopropyl)methyl) 4-octyl 2-methylenesuccinate] was tested. Which IC50 did it give?
Its IC50 is 9.5 µM.

For C=C(CC(=O)OCCCCCCCC)C(=O)OC(C)COC (stereo not drawn) [Example 31, 1-(1-methoxypropan-2-yl) 4-octyl 2-methylenesuccinate], which IC50 is on record?
Its IC50 is 15.5 µM.
